According to US8536354B2, “Steroidal ligands and their use in gene switch modulation” (Intrexon Corporation, priority 2008, dated 2013):
Read-outs that look alike come from different tables or passages of the source.

Columns and labels:
[1] = molecular target: T1, wild-type Aedes aegypti EcR (AaEcR-DEF) (Aedes aegypti, UniProt P49880); test: Two-hybrid gene switch assay, AaEcR-DEF in NIH3T3 cells; conditions: AaEcR; for rel max FI (20E), AA: max fold induction at any concentration relative to 20E; for rel max FI (PoA), AA: max fold induction at any concentration relative to PoA; for EC50: NIH3T3 cells, luciferase, 48 h, ligand 0.01-33 μM
T1 sequence (P49880 405-776 limits assumed): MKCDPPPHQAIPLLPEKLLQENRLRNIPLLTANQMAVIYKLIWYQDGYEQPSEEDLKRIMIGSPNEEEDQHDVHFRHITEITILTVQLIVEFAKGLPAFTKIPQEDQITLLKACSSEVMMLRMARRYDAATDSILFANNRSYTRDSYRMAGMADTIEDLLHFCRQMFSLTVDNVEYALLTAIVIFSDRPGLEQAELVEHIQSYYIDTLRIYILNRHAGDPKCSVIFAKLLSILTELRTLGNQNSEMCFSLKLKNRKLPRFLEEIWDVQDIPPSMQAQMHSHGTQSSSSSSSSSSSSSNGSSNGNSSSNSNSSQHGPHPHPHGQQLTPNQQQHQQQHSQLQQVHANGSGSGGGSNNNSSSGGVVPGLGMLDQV

[2] = molecular target: Bemisia argentifolii EcR (BaEcR-DEF) (Bemisia argentifolii (Bemisia tabaci biotype B / MEAM1), UniProt A0A6M3RDR8); test: Two-hybrid gene switch assay, BaEcR-DEF in NIH3T3 cells; conditions: for Emax: NIH3T3, 48 h
Sequence of Bemisia argentifolii EcR (BaEcR-DEF) (P28702 298-449): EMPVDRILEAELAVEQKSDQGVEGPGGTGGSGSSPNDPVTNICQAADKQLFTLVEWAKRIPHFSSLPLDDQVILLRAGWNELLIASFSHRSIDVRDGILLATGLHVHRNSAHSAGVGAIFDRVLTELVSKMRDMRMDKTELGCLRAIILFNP
Sequence of Bemisia argentifolii EcR (BaEcR-DEF) (A0A6M3RDR8 entry or part of it): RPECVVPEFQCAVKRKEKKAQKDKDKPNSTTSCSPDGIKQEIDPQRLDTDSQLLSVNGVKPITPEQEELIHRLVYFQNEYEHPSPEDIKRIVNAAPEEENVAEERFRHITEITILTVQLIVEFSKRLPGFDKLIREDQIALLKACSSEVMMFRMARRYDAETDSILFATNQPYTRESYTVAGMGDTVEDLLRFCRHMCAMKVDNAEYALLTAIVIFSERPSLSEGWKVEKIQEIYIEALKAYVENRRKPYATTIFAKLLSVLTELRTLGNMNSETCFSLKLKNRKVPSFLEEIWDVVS

[3] = system: Nephotettix cincticeps EcR (NcEcR-DEF); test: Two-hybrid gene switch assay, NcEcR-DEF in NIH3T3 cells; conditions: for rel max FI (20E), NC: max fold induction at any concentration relative to 20E; for rel max FI (PoA), NC: max fold induction at any concentration relative to PoA; for EC50: read-out: EC50 (μM), NC, NIH3T3 cells, luciferase, 48 h, ligand 0.01-33 μM
[4] = molecular target: T2, Tenebrio molitor EcR (TmEcR-DEF) (Tenebrio molitor, UniProt O02035); test: Two-hybrid gene switch assay, TmEcR-DEF in NIH3T3 cells; conditions: for Emax: NIH3T3, 48 h
T2 sequence (O02035 194-491): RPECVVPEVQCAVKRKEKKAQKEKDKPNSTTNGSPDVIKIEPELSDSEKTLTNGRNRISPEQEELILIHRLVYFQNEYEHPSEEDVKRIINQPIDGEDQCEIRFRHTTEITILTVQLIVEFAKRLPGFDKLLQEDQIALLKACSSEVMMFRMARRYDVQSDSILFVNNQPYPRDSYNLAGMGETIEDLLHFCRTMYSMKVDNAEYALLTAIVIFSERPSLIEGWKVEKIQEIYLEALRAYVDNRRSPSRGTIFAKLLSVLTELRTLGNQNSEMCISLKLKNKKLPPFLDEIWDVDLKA
T2 sequence (P28704 285-520 partner): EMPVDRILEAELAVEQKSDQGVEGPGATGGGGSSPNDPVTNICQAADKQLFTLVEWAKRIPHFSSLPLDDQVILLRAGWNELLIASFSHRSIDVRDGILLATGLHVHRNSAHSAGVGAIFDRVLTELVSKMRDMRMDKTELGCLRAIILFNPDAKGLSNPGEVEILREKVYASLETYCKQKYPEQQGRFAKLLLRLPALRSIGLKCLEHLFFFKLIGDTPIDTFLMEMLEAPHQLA

[5] = molecular target: T3, Manduca sexta EcR (MsEcR) (Manduca sexta, UniProt P49883); test: Two-hybrid gene switch assay, MsEcR-CDEF in NIH3T3 cells; conditions: for rel max FI (20E), MS: max fold induction at any concentration relative to 20E; for rel max FI (PoA), MS: max fold induction at any concentration relative to PoA
T3 sequence (P49883 293-531 limits assumed): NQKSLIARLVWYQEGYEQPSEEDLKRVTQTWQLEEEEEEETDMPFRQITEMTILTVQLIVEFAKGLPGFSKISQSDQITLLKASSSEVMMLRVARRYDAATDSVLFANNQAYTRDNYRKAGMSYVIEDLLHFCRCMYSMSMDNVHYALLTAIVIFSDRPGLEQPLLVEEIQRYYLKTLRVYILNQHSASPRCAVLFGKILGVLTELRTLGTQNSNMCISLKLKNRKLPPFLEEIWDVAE

[6] = molecular target: T4, wild-type Choristoneura fumiferana EcR (CfEcR-DEF) (Choristoneura fumiferana, UniProt O77255); test: Two-hybrid gene switch assay, wild-type CfEcR-DEF (GAL4-EcR / VP16-RXR-USP chimera, luciferase) in NIH3T3 cells; conditions: for Emax: NIH3T3, 48 h
T4 sequence (O77255 219-541): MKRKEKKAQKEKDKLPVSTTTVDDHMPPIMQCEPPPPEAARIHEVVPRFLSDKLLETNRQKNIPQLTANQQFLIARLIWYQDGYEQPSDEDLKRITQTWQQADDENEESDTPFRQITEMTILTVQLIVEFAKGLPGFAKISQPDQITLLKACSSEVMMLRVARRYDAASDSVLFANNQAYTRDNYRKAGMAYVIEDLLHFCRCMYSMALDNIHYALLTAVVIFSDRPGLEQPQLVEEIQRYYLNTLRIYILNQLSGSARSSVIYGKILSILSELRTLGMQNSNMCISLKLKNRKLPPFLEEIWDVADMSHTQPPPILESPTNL
T4 sequence (P28702 299-449 partner): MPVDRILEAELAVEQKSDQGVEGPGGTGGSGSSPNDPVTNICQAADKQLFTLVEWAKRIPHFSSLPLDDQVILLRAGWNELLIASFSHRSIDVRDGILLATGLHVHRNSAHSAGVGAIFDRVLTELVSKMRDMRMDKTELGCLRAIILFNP

[7] = system: EcRs (lepidopteran and non-lepidopteran); test: Two-hybrid gene switch assays, statements across the set of ten EcRs in NIH3T3 cells

Structure (SMILES)	rel max FI (20E), AA [1]	rel max FI (PoA), AA [1]	EC50 ([1]; EC50 (μM), AA) [µM]	EC50 [2] [µM]	Emax ([2]; read-out: rel max FI (20E), BA) [%]	Emax ([2]; read-out: rel max FI (PoA), BA) [%]	rel max FI (20E), NC [3]	rel max FI (PoA), NC [3]	EC50 [3] [µM]	EC50 [4] [µM]	Emax ([4]; read-out: rel max FI (20E), TM) [%]	Emax ([4]; read-out: rel max FI (PoA), TM) [%]	EC50 [5] [µM]	rel max FI (20E), MS ([5]; MsEcR)	rel max FI (PoA), MS ([5]; MsEcR)	EC50 [6] [µM]	Emax ([6]; read-out: rel max FI (20E), CF) [%]	Emax ([6]; read-out: rel max FI (PoA), CF) [%]	also measured
CO[C@H](CCC(C)(C)O)[C@](C)(O)C1CC[C@@]2(O)C3=CC(=O)C4C[C@@H](O)[C@@H](O)CC4(C)C3CCC12C (stereo partly drawn) [20E-22-methyl ether]	2.52	0.86	1.04	~3	154	123	1.02	1.05	2.59	7.08	158	81	~10	1.29	0.81	> 33	7	0	–
COC1C[C@H]2C(=O)C=C3[C@H](CC[C@]4(C)[C@@H]([C@@](C)(O)C(CCC(C)(C)O)OC)CC[C@@]34OC)[C@@]2(C)CC1OC (stereo partly drawn) [20E-2,3,14,22-tetramethyl ether]	0.07	0.02	–	–	–	–	0.01	0.01	> 33	–	–	–	–	0.00	0.00	–	–	–	EC50 ([1]; read-out: EC50 (μM), AA): > 33 µM; rel max FI (20E), BA ([2]; BaEcR, max fold induction at any concentration relative to 20E): 0.02; rel max FI (PoA), BA ([2]; BaEcR, max fold induction at any concentration relative to PoA): 0.01; EC50 ([2]; read-out: EC50 (μM), BA, BaEcR, NIH3T3 cells, luciferase, 48 h, ligand 0.01-33 μM): > 33 µM; rel max FI (20E), TM ([4]; TmEcR, max fold induction at any concentration relative to 20E): 0.05; rel max FI (PoA), TM ([4]; TmEcR, max fold induction at any concentration relative to PoA): 0.02; EC50 ([4]; read-out: EC50 (μM), TM, TmEcR, NIH3T3 cells, luciferase, 48 h, ligand 0.01-33 μM): > 33 µM; EC50 ([5]; read-out: EC50 (μM), MS, MsEcR, NIH3T3 cells, luciferase, 48 h, ligand 0.01-33 μM): > 33 µM; EC50 ([6]; read-out: EC50 (μM), CF, wild-type CfEcR, NIH3T3 cells, luciferase, 48 h, ligand 0.01-33 μM): > 33 µM; rel max FI (20E), CF ([6]; wild-type CfEcR, max fold induction at any concentration relative to 20E): 0.46; rel max FI (PoA), CF ([6]; wild-type CfEcR, max fold induction at any concentration relative to PoA): 0.00
CO[C@H]1C[C@@]2(C)[C@@H](C[C@H]1O)C(=O)C=C1[C@@H]2CC[C@]2(C)[C@@H]([C@@](C)(O)[C@@H](CCC(C)(C)O)OC)CC[C@@]12O [20E-2,22-dimethyl ether]	2.34	0.80	~8	~10	24	19	0.84	0.86	~10	~10	24	13	~20	0.15	0.09	> 33	63	0	–
CC(C)CC[C@@H](O)[C@](C)(O)[C@H]1CC[C@@]2(O)C3=CC(=O)[C@@H]4C[C@@H](O)[C@@H](O)C[C@]4(C)[C@H]3[C@H](O)C[C@]12C [ajugasterone C]	–	–	–	–	–	–	–	–	–	–	–	–	–	–	–	–	–	–	selectivity / relative potency between EcRs [7]: higher in non-lepidopteran species
CO[C@@H]1C[C@H]2C(=O)C=C3[C@H](CC[C@]4(C)[C@@H]([C@@](C)(O)[C@@H](CCC(C)(C)O)OC)CC[C@@]34O)[C@@]2(C)C[C@@H]1O [20E-3,22-dimethyl ether]	2.32	0.79	7.15	~10	38	30	1.03	1.06	~8	~6	137	71	~10	0.82	0.52	> 33	46	0	–
CC(C)=CC[C@@H](O)[C@](C)(O)[C@H]1CC[C@@]2(O)C3=CC(=O)[C@@H]4C[C@@H](O)[C@@H](O)C[C@]4(C)[C@H]3CC[C@]12C [stachysterone C]	–	–	–	–	–	–	–	–	–	–	–	–	–	–	–	–	–	–	activity across the tested set of EcRs ([7]; FIGS. 13 and 14): active
CO[C@@H]1C[C@H]2C(=O)C=C3[C@H](CC[C@]4(C)[C@@H]([C@@](C)(O)[C@H](O)CCC(C)(C)O)CC[C@@]34O)[C@@]2(C)C[C@@H]1O [20E-3-methyl ether]	1.75	0.60	~10	~15	29	23	1.01	1.04	1.69	~10	114	59	~10	1.15	0.73	> 33	115	1	–
CO[C@H]1C[C@@]2(C)[C@@H](C[C@H]1O)C(=O)C=C1[C@@H]2CC[C@]2(C)[C@@H]([C@@](C)(O)[C@H](O)CCC(C)(C)O)CC[C@@]12O [20E-2-methyl ether]	0.87	0.30	~10	> 33	3	3	0.82	0.84	~8	> 33	7	4	~20	0.16	0.10	> 33	14	0	–
C[C@@H]1C(=O)O[C@H](C)[C@H]1C[C@@H](O)[C@](C)(O)[C@H]1CC[C@@]2(O)C3=CC(=O)[C@@H]4C[C@@H](O)[C@@H](O)C[C@]4(C)[C@H]3CC[C@]12C [cyasterone]	–	–	–	–	–	–	–	–	–	–	–	–	–	–	–	–	–	–	selectivity / relative potency between EcRs [7]: somewhat selective for lepidopteran EcRs
